Earlier results as cited in patent US20220323523A1, “METHOD AND APPARATUS FOR THE INFUSION OF CA[…] A SHELF-STABLE FOOD COMPOSITION” (priority 2019, published 2022).

Conditions: rats; for enhancement of exposure by co-administration of lipids compared to lipid-free formulations: co-administration of lipids vs lipid-free formulations

SMILES: C=C(C)[C@@H]1CCC(C)=C[C@H]1c1c(O)cc(CCCCC)cc1O [CBD, Cannabidiol]
- enhancement of exposure by co-administration of lipids compared to lipid-free formulations: 3 fold
- enhancement of bioavailability by co-administration of cannabinoids with lipids: ~3 fold

SMILES: CCCCCc1cc(O)c2c(c1)OC(C)(C)[C@@H]1CCC(C)=C[C@@H]21 [THC, Tetrahydrocannabinol]
- enhancement of exposure by co-administration of lipids compared to lipid-free formulations: 2.5 fold
- enhancement of bioavailability by co-administration of cannabinoids with lipids: more than 2.5 fold
